According to article PMC12498288 (Frontiers in Immunology, 2025):
Several values for one entry are separate records, joined by “and”; a condition that tells them apart may be missing. Equal values may be shown once.

What was measured:
SARS-CoV-1 = assay: microbe, parasite or virus in culture; assay type: cell-based, SARS-CoV-1 (SARS-CoV-HKU-39849); conditions: Severe acute respiratory syndrome coronavirus, Vero
[1] = system: cytokine and chemokine levels; assay: RESPIRE Phase 2 trial, cytokines/chemokines in hospitalized COVID-19 patients (MesoScale V-Plex); assay type: in vivo, human; conditions: vs placebo
Excerpt: For standard of care treatment see Supplementary Table 5 .

[2] = system: lymphocytes, T cells and B cells; assay: RESPIRE Phase 2 trial, lymphocytes, T and B cells in blood (flow cytometry); assay type: in vivo, human; conditions: 30-day observation period
Procedure: Patients receiving glucocorticoids as standard of care treatment were excluded from the analyses. Experiments were performed by CheckImmune GmbH according to the companies’ SOPs. In short, presence of lymphocytes, T cells and B cells were determined using Flow cytometry analysis. Fresh whole blood from hospitalized SARS-CoV-2 infected patients was stained with the aforementioned DuraClone antibody panels for 15 min at room-temperature and lysed for 15 min at room temperature following the standard staining protocol. Sample acquisition was carried out using the Navios Flow Cytometer (Beckman Coulter). Data analysis was conducted using Kaluza software before being sent to the LIMS system. This procedure is fit for purpose validated under ISO and GCP guidelines.

[3] = system: cytokine and chemokine levels; assay: Cytokine and chemokine levels in SARS-CoV-2-infected Syrian hamsters (serum ELISA, lung RT-qPCR); assay type: in vivo; conditions: 4 dpi, between groups after infection and treatment
Procedure: Eleven- to thirteen-week-old male Syrian hamsters (Janvier, France) with a body weight of 113-148 g were infected on day 0 intranasally with SARS-CoV-2 (1x10^3 median tissue culture infectious dose (TCID50) BetaCoV/Munich/BavPat1/2020) in a total volume of 0.1 mL PBS divided between the nostrils. Zapnometinib (100 mg/kg) was administered p.o. at 4 or 24 h p.i. and the animals in both groups were treated thereafter with 75 mg/kg zapnometinib once daily. The animals in the control group received vehicle (5% DMSO, 15% Kolliphor, 80% PBS) 4 h p.i. and thereafter once daily. Serum samples were collected from hamsters before infection (0 dpi) and at 4 dpi, and the levels of different cytokines and chemokines (IL1-β, TNF-α, IL-6, and IP-10) were analyzed by ELISA (Assay Genie, Ireland). […] Tetramethylbenzidine (TMB) substrate was added and the color change in the wells was used as readout for the ELISA. The optical density (OD) at 450 nm was read. Cytokine and chemokine concentrations were calculated following the manufacturer’s instructions for interpolating unknown concentrations from a standard curve.
Supplementary Figure 3. […] A. Cytokine levels in serum samples collected at 0 dpi (before infection and treatment, bottom row) and 4 dpi (top row) from vehicle-treated and zapnometinib-treated Syrian hamsters from the efficacy study analyzed by ELISA are shown. […]

[4] = system: SARS-CoV-2 (BetaCoV/Munich/BavPat1/2020)
[5] = set-up: method as in PMID 38106555; conditions: hospitalized COVID-19 patients; cited from earlier work

O=C(O)c1ccc(F)c(F)c1Nc1ccc(I)cc1Cl [zapnometinib]
EC50 (SARS-CoV-1): 33.6 µM and 13.8 µg/mL
IL-8/CXCL-8 levels ([1]; up to day 30): slight but not statistically significant increase
TNF-α levels ([1]; up to day 30): no changes
MCP-1 levels ([1]; up to day 30, 900 mg D1 then 600 mg daily D2-6, p = <0.0001): significant reduction
IL-6 levels ([1]; up to day 30, p = 0.0017): significantly reduced
IFNγ levels ([1]; up to day 30, p = <0.0001): significant reduction
MIP-1α levels ([1]; up to day 30, p = <0.0001): significant reduction
Lymphocytes, Increase compared to Placebo [2]: 44.5%
Plasma B cells, Increase compared to Placebo [2]: 61.8%
Memory B cells, Increase compared to Placebo ([2]; p = 0.0377): -37.4%
T cells, Increase compared to Placebo ([2]; p = 0.0409): 73.7%
cytokine and chemokine levels in serum (ELISA) and lung tissue (RT-qPCR) [3]: no major differences
tolerability ([4]; 100 mg/kg then 75 mg/kg daily p.o., both groups): well tolerated
viral titers in nasal turbinates ([4]; […], did not reach statistical significance): trend toward lower mean viral titers
lung inflammation (infiltrating inflammatory cells, consolidation, decreased air containing space) ([4]; hamster, in vivo): less severe
mean body weight loss ([4]; hamster, in vivo): 8-11%
mean viral titer in throat swabs ([4]; hamster, in vivo): still lower in the throat swabs of drug-treated animals, although no statistically significant differences
percentage of lung injury in lung tissue (gross pathology) ([4]; hamster, in vivo): significantly reduced
reduction in replication-competent virus in throat swabs (TCID50 assay) ([4]; hamster, in vivo): 1.1 log10 and 1.3 log10
reduction of infectious viral titer in nasal turbinates (TCID50 assay) ([4]; hamster, in vivo): 1.3 log10
reduction of viral load in nasal turbinates (RT-qPCR) ([4]; hamster, in vivo): 1.1 log10
viral load in throat swabs ([4]; hamster, in vivo): comparable
viral titer reduction (number of viral copies) in throat swabs (RT-qPCR) ([4]; hamster, in vivo): 1.1 log10 and 1.2 log10
treatment-related adverse effects ([4]; zapnometinib-treated groups vs vehicle-treated group): no treatment-related adverse effects were observed
safety and tolerability [5]: safe and well-tolerated
